Columns and labels:
[1] = Perfume stabilization effect (photostabilizer, sunlight exposure, judgement by perfumier); parameters: key to Sunlight exposure (80 MJ) Smell evaluation / Sunlight exposure (80 MJ) evaluation: A: No change; B: No almost change; C: Yes change
Experimental: Next, the photostabilization effect for each perfume was studied by the following evaluation formulation.
Each test sample was prepared. Change of smell of sample exposed to sunlight (80 MJ) was observed (judgement by perfumier).

[2] = Drug stabilization effect (photostabilizer, sunlight exposure); parameters: key to Sunlight exposure (80 MJ) Appearance: A: No change; B: No almost change; C: Yes change; details: photostabilizer 0.05, amounts wt %
Experimental: Next, the photo stabilization effect and changes in appearance in drug compositions were studied according to the following evaluation formulation.
Each test sample was prepared. Appearance changes of the samples exposed to sunlight (80 MJ) was observed (visual evaluation). Also, residual yield was measured by liquid chromatography.

[3] = Colorant stabilization effect (photostabilizer, sunlight exposure); parameters: key to Sunlight exposure (80 MJ) Appearance: A: No change; B: No almost change; C: Yes change; key to Sunlight exposure (80 MJ) ΔE: ΔE color difference (Lab) vs. color before sunlight exposure; details: photostabilizer 0.05 wt %
Experimental: First of all, the photostabilization effect and appearance change of a composition in each pigment were studied by the following evaluation formulation.
Each test sample was prepared. Observation of appearance change (visual evaluation) and measurement of color difference (ΔE) were carried out in samples exposed to sunlight exposure (around 80 MJ).
Color difference was measured by Lab coordinate system with spectrophotometer. Color difference was calculated on the basis of the color before sunlight exposure. Namely, from measured value (L1,a1,b1) before sunlight exposure, color difference (ΔE) was calculated by following formula.

[4] = Perfume stabilization effect (sequestering agent combination); parameters: key to Sunlight exposure (80 MJ) Smell evaluation: A: No change; B: No almost change; C: Yes change
Experimental: Next, for combinations with sequestering agent, photostabilization effect for each perfume was studied by the following evaluation formulation.
Each test sample was prepared. Smell change of samples exposed to sunlight (80 MJ) was observed (judgement by perfumier).

[5] = Pigment stabilization effect (sequestering agent combination); parameters: key to Sunlight exposure (80 MJ) Appearance: A: No change; B: No almost change; C: Yes change; key to Sunlight exposure (80 MJ) ΔE: color difference ΔE in Lab space vs. color before sunlight exposure; details: photostabilizer 0, amounts wt %
Experimental: First of all, the photostabilization effect and appearance changes of a composition for each pigment were studied by the following evaluation formulation.
Each test sample was prepared. Observation of appearance changes (visual evaluation) and measurement of color difference (ΔE) were carried out for samples exposed to sunlight (around 80 MJ).
Color difference was measured by Lab coordinate system with spectrophotometer. Color difference was calculated based on the color before sunlight exposure. Namely, from the measured value (L1,a1,b1) before sunlight exposure, color difference (ΔE) was calculated by following formula.

[6] = drug 2-o-α-α-glucopyranosyl-L-ascorbic acid 2.0
[7] = drug Dibutylhydroxytoluene 0.01
[8] = drug Dipotassium glycyrrhizinate 0.05
[9] = drug L-ascorbic acid 2-(dl-α-tocopheryl hydrogen phosphate) potassium salt 0.01
[10] = Red No. 106 0.00001 wt % + Yellow No. 5 0.0001 wt %
[11] = Red No. 106 0.00001 wt % + Yellow No. 203 0.0001 wt %
[12] = Red No. 213 0.00001 wt % + Blue No. 1 0.00001 wt %
[13] = Red No. 227 0.0001 wt % + Yellow No. 5 0.0001 wt %
[14] = Red No. 227 0.0001 wt % + Yellow No. 203 0.0001 wt %
[15] = Red No. 401 0.0001 wt % + Blue No. 1 0.00001 wt %
[16] = Red No. 401 0.0001 wt % + Green No. 3 0.00001 wt %
[17] = Yellow No. 203 0.0001 wt % + Yellow No. 5 0.0001 wt %
[18] = colorant Green No. 3 0.0001, sequestering agent 0.03 alone
[19] = colorant Red No. 106 0.0001, sequestering agent 0.02 alone
[20] = colorant Red No. 401 0.001, sequestering agent 0.1 alone
[21] = colorant Yellow No. 5 0.001, sequestering agent 0.02 alone

COc1ccc(C(=O)c2ccccc2)c(O)c1 [2-Hydroxy-4-methoxybenzophenone, reference compound]
Sunlight exposure (80 MJ) Smell evaluation ([1]; Base perfume Fruity 0.03 wt %, photostabilizer 0.1 wt %): B | Sunlight exposure (80 MJ) Smell evaluation ([1]; Base perfume Muguet 0.03 wt %, photostabilizer 0.05 wt %): B | Sunlight exposure (80 MJ) Smell evaluation ([1]; Base perfume Rose 0.03 wt %, photostabilizer 0.05 wt %): B | Sunlight exposure (80 MJ) Smell evaluation ([1]; Base perfume Spicy 0.03 wt %, photostabilizer 0.2 wt %): B | Sunlight exposure (80 MJ) Smell evaluation ([1]; Base perfume Woody 0.03 wt %, photostabilizer 0.1 wt %): B | Sunlight exposure (80 MJ) Smell evaluation ([1]; Natural perfume Jasmine oil 0.03 wt %, photostabilizer 0.05 wt %): B | Sunlight exposure (80 MJ) Smell evaluation ([1]; Natural perfume Lavender oil 0.03 wt %, photostabilizer 0.1 wt %): B | Sunlight exposure (80 MJ) Smell evaluation ([1]; Natural perfume Neroli oil 0.03 wt %, photostabilizer 0.1 wt %): B | Sunlight exposure (80 MJ) Smell evaluation ([1]; Natural perfume Rose oil 0.03 wt %, photostabilizer 0.05 wt %): B | Sunlight exposure (80 MJ) Smell evaluation ([1]; Natural perfume Ylang ylang oil 0.03 wt %, photostabilizer 0.2 wt %): B | Sunlight exposure (80 MJ) Smell evaluation ([1]; Synthetic perfume Citral 0.03 wt %, photostabilizer 0.1 wt %): B | Sunlight exposure (80 MJ) Smell evaluation ([1]; Synthetic perfume Limonene 0.03 wt %, photostabilizer 0.05 wt %): B | Sunlight exposure (80 MJ) Smell evaluation ([1]; Synthetic perfume Linalool 0.03 wt %, photostabilizer 0.05 wt %): B | Sunlight exposure (80 MJ) Smell evaluation ([1]; Synthetic perfume Linalyl acetate 0.03 wt %, photostabilizer 0.1 wt %): B | Sunlight exposure (80 MJ) Smell evaluation ([1]; Synthetic perfume Rose oxide 0.03 wt %, photostabilizer 0.2 wt %): B | Sunlight exposure (80 MJ) Appearance [2, 6]: B | Sunlight exposure (80 MJ) Residual yield [%] [2, 6]: 97.3% | Sunlight exposure (80 MJ) Appearance [2, 7]: B | Sunlight exposure (80 MJ) Residual yield [%] [2, 7]: 95.2% | Sunlight exposure (80 MJ) Appearance [2, 8]: B | Sunlight exposure (80 MJ) Residual yield [%] [2, 8]: 97.8% | Sunlight exposure (80 MJ) Appearance [2, 9]: B | Sunlight exposure (80 MJ) Residual yield [%] [2, 9]: 95.4% | Sunlight exposure (80 MJ) Appearance ([2]; drug Salicylic acid 0.1): B | Sunlight exposure (80 MJ) Residual yield [%] ([2]; drug Salicylic acid 0.1): 98.2% | Sunlight exposure (80 MJ) Appearance ([3]; Blue No. 1 0.0001 wt %): B | Sunlight exposure (80 MJ) ΔE ([3]; Blue No. 1 0.0001 wt %): 1.76 | Sunlight exposure (80 MJ) Appearance ([3]; Green No. 3 0.0001 wt %): B | Sunlight exposure (80 MJ) ΔE ([3]; Green No. 3 0.0001 wt %): 0.75 | Sunlight exposure (80 MJ) Appearance [3, 10]: B | Sunlight exposure (80 MJ) ΔE [3, 10]: 1.18 | Sunlight exposure (80 MJ) Appearance [3, 11]: B | Sunlight exposure (80 MJ) ΔE [3, 11]: 1.11 | Sunlight exposure (80 MJ) Appearance ([3]; Red No. 106 0.0001 wt %): B | Sunlight exposure (80 MJ) ΔE ([3]; Red No. 106 0.0001 wt %): 1.01 | Sunlight exposure (80 MJ) Appearance [3, 12]: B | Sunlight exposure (80 MJ) ΔE [3, 12]: 1.26 | Sunlight exposure (80 MJ) Appearance ([3]; Red No. 213 0.0001 wt %): B | Sunlight exposure (80 MJ) ΔE ([3]; Red No. 213 0.0001 wt %): 1.34 | Sunlight exposure (80 MJ) Appearance [3, 13]: B | Sunlight exposure (80 MJ) ΔE [3, 13]: 0.88 | Sunlight exposure (80 MJ) Appearance [3, 14]: B | Sunlight exposure (80 MJ) ΔE [3, 14]: 1.05 | Sunlight exposure (80 MJ) Appearance ([3]; Red No. 227 0.0001 wt %): B | Sunlight exposure (80 MJ) ΔE ([3]; Red No. 227 0.0001 wt %): 0.71 | Sunlight exposure (80 MJ) Appearance [3, 15]: B | Sunlight exposure (80 MJ) ΔE [3, 15]: 0.82 | Sunlight exposure (80 MJ) Appearance [3, 16]: B | Sunlight exposure (80 MJ) ΔE [3, 16]: 1.06 | Sunlight exposure (80 MJ) Appearance ([3]; Red No. 401 0.001 wt %): B | Sunlight exposure (80 MJ) ΔE ([3]; Red No. 401 0.001 wt %): 1.18 | Sunlight exposure (80 MJ) Appearance ([3]; Yellow No. 5 0.001 wt %): B | Sunlight exposure (80 MJ) ΔE ([3]; Yellow No. 5 0.001 wt %): 0.82 | Sunlight exposure (80 MJ) Appearance [3, 17]: A | Sunlight exposure (80 MJ) ΔE [3, 17]: 0.52 | Sunlight exposure (80 MJ) Appearance ([3]; Yellow No. 203 0.001 wt %): B | Sunlight exposure (80 MJ) ΔE ([3]; Yellow No. 203 0.001 wt %): 0.88

O=C([O-])CNCCN(CC(=O)[O-])CC(=O)[O-].[Na+].[Na+].[Na+] [Trisodium ethylenediamine triacetate]
Sunlight exposure (80 MJ) Smell evaluation [4]: C

Sodium polyphosphate
Sunlight exposure (80 MJ) Appearance [5, 18]: C | Sunlight exposure (80 MJ) ΔE [5, 18]: 2.1 | Sunlight exposure (80 MJ) Appearance [5, 19]: C | Sunlight exposure (80 MJ) ΔE [5, 19]: 2.92 | Sunlight exposure (80 MJ) Appearance [5, 20]: C | Sunlight exposure (80 MJ) ΔE [5, 20]: 7.14 | Sunlight exposure (80 MJ) Appearance [5, 21]: C | Sunlight exposure (80 MJ) ΔE [5, 21]: 1.75
